In article PMC5622107, “Small molecule inhibition of cGAS reduces interferon expression in primary macrophages from autoimmune mice” (Nature Communications, 2017):
Entries after “also recorded” stand apart in the source; their conditions may differ. Like-named read-outs stand apart in the source and are kept apart here.

Legend:
[1] = target: T1, mouse cGAS (Mus musculus, UniProt Q8C6L5); experiment: RapidFire mass spectrometry (RF-MS) cGAS enzymatic assay, cGAMP product formation; format: biochemical; conditions: for IC50: read-out: IC50
T1 construct: recombinant full-length mouse cGAS in reaction buffer; His6-SUMO (N, cleaved yes); made in house; host or cells: E. coli BL21(DE3) RIL
T1 sequence (Q8C6L5 whole entry): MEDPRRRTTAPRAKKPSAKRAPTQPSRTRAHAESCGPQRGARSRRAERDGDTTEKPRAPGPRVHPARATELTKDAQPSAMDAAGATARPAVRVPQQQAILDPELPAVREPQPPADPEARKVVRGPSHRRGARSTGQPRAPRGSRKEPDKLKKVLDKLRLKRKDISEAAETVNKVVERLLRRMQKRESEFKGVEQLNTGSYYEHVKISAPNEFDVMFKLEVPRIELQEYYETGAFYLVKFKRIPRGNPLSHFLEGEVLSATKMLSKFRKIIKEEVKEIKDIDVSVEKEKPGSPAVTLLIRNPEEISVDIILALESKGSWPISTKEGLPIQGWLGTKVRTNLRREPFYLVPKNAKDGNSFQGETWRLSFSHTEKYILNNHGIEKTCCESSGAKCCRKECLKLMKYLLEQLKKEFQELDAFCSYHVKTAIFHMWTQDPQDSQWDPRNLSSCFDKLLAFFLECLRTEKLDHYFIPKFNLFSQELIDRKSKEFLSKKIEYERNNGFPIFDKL
How it was run: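 Reactions were stopped with 0.5% formic acid, then ATP, GTP and cGAMP were separated by solid-phase extraction on graphitic carbon and detected by negative-ion MS. Product formation (%) = AUCcGAMP×100/(AUCcGAMP + ½AUCATP + ½AUCGTP). Percent inhibition was normalized to positive and negative controls.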

[2] = test system: RAW macrophage cells stimulated with 5′ppp-HP20 RNA, Pam3CSK4, poly(I:C), LPS or recombinant Ifnb; experiment: Selectivity: RAW macrophages stimulated with non-DNA immunogenic ligands (luciferase reporter or Il-6 qRT-PCR); format: cell-based, mouse
Experimental: The sequence and annealing conditions of the dsDNA used is described above. Typically, 0.4 µg or 0.6 µg of dsDNA was used to stimulate RAW-Lucia ISG-KO-TREX1/ISG-KO-cGAS or RAW-Lucia ISG cells, respectively, which equated to 90% of maximal luciferase activity observed. dsDNA stimulation of RAW macrophages and subsequent luciferase measurements were performed with or without the addition of small molecules at indicated concentrations in each figure, or with DMSO as vehicle control. For the dose curve experiments, serial dilutions of inhibitors were applied to 6.7 × 10^5 cells, plated in 24-well dishes, and co-stimulated with 0.4 µg of dsDNA. In subsequent experiments using inhibitors in RAW cells, the small molecules were used at concentrations representing the derived EC75 values, while co-stimulated with one of the following: 0.4 µg dsDNA, 50 nM 5′ppp-HP20 hairpin RNA (a kind gift from Dr Anna Pyle, Yale University; sequence located in Supplementary Table 5), 10 µM cGAMP, or 100 U ml^−1 murine recombinant Ifnb (R&D Systems). dsDNA was transfected using Lipofectamine LTX. 5′ppp-HP20 RNA was transfected using Lipofectamine 2000. Cells were harvested 24 h post-transfection, washed with PBS, and lysed in 1× Luciferase Cell Lysis Buffer (Pierce).
The minimum numbers of biological and technical replicates for the luciferase assays were two and three, respectively. Analysis of luminescence values were evaluated for outliers (one standard deviation above and below the mean) for each biological replicate, and the resulting means were used to generate graphs in GraphPad Prism (v. 7.0c); where applicable, an unpaired t-test with Welch’s correction was used to compare the results of each individual compound to dsDNA or other stimulant. The experimental variances observed within control samples (untreated or vehicle) and treated samples were similar.
The small molecules were used at concentrations representing the EC75 values and were co-stimulated with either 200 ng Pam3CSK4 (Invivogen), 25 µg poly(I:C) or 100 ng lipopolysaccharide (Sigma-Aldrich) at the cell counts and conditions previously described for the cellular luciferase assays. Cells were harvested 24 h post-transfection, washed with PBS, and RNA was extracted using Trizol (Ambion) and chloroform (Sigma-Aldrich). In all, 1–2 µg of total RNA was reverse-transcribed using random hex primers and SuperScript III (Life Technologies) into cDNA. […] The expression of mRNAs […] murine Actb1 and Il-6 were measured (see Supplementary Table 5 for primer sequences used). Target C T values were normalized to Actb1 C T values and used to calculate ΔC T. mRNA expression of target genes were then calculated using the ΔΔC T method (2^ΔΔCT). Expression values were analyzed as described in the method for cellular luciferase assays.

[3] = Supplementary Table 3, analogs more potent than RU166365

| Structure (SMILES) | IC50 ([1]; Supplementary Table 2, batch of compounds stored in the screening library) | inhibition at 12.5 µM ([1]; Supplementary Table 2, compound 12.5 µM, read-out: % inhibition at 12.5 µM) | IC50 [1, 3] | Il-6 mRNA expression ([2]; cells activated by Pam3CSK4, poly(I:C), or LPS, qRT-PCR) | effect of structural modification on cGAS inhibitory potency ([1]; compared with RU.365) | improvement in potency ([1]; relative to RU.365) | inhibition of cells stimulated with recombinant Ifnb ([2]; JAK/STAT signaling, luciferase reporter) | suppression of activation by immunogenic stimuli other than dsDNA ([2]; compound at EC75, 5′ppp-HP20 RNA, Pam3CSK4, poly(I:C), LPS, Ifnb, listed as RU.521) |
| --- | --- | --- | --- | --- | --- | --- | --- | --- |
| Cc1nn(-c2nc3ccccc3[nH]2)c(O)c1C1OC(=O)c2ccccc21 (stereo not drawn) [RU166365] | 520 nM | 99% | 1890 nM | increased Il-6 messenger RNA (mRNA) expression | – | – | – | – |
| Cc1nn(-c2nc3ccc(Cl)c(Cl)c3[nH]2)c(O)c1C1OC(=O)c2ccccc21 (stereo not drawn) [RU320521, 3-[1-(6,7-dichloro-1H-benzimidazol-2-yl)-5-hydroxy-3-methyl-pyrazol-4-yl]-3H-isobenzofuran-1-one] | – | – | 110 nM | – | increased inhibitory potency | 17 fold | did not inhibit | unable to potently suppress activation; also recorded: little to no inhibitory effects |
